In US5095006A, “Renin inhibitors having all retro-inverted peptide bonds” (Bayer Aktiengesellschaft, priority 1989, dated 1992):

Molecular target: T1, endogenous renin from human plasma (Homo sapiens, UniProt P00797)
T1 construct: rate of formation of angiotensin I from endogenous angiotensinogen and renin; from tissue; host or cells: pooled human plasma (EDTA)
T1 sequence (P00797 67-406): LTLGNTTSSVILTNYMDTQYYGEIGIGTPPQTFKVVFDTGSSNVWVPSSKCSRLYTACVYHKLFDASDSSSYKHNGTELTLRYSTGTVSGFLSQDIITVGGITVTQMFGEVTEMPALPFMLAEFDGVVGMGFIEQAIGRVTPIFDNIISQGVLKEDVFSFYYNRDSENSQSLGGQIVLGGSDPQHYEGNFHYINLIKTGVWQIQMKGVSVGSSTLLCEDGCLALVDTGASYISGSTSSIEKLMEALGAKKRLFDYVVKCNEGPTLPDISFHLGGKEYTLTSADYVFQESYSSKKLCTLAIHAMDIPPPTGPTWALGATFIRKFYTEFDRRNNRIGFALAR
Test: In vitro test: inhibition of plasma renin activity (angiotensin I formation, radioimmunoassay)
Type: biochemical
Conditions: pooled human plasma, 37° C., pH 5.6
Experimental: The plasma renin activity (PRA) is determined by incubation at 37° C. as the rate of formation of angiotensin I from endogenous angiotensinogen and renin. […] The angiotensin I formed per unit of time is determined by radioimmunoassay (Sorin Biomedica, Italy).
The percentage inhibition of the plasma renin activity is calculated by comparison […].

SMILES	Inhibition at 0.05 mg/ml [%]
CC(C)(C)OC(=O)N(Cc1ccccc1)CC(O)C(Cc1ccccc1)C(=O)N[C@H](Cc1c[nH]cn1)C(=O)O (stereo partly drawn) [Example 74, 4-(N-tert.-Butoxycarbonyl-N-benzyl)amino-2-R,S-benzyl-3-R,S-hydroxybutyryl-D-histidine]	93
CC(C)(C)OC(=O)N(Cc1ccccc1)CC(O)C(Cc1ccccc1)C(=O)N[C@H](Cc1cnc[nH]1)C(=O)N[C@H](Cc1ccccc1)C(=O)O (stereo partly drawn) [Example 76, 4-(N-tert.-Butoxycarbonyl-N-benzyl)amino-2-R,S-benzyl-3-R,S-hydroxybutyryl-D-histidyl-D-phenylalanine]	78
CC(C)(C)OC(=O)N(Cc1ccccc1)C[C@H](O)[C@@H](Cc1ccccc1)C(=O)N[C@H](Cc1c[nH]cn1)C(=O)N[C@H](Cc1ccccc1)C(=O)N1CCOCC1 [Example 77, 4-(N-tert.-Butoxycarbonyl-N-benzyl)amino-2-R,S-benzyl-3-R,S-hydroxybutyryl-D-histidyl-D-phenylalanine-(N-morpholino)amide]	100
CC(C)CNC(=O)[C@@H](Cc1ccccc1)NC(=O)[C@@H](Cc1c[nH]cn1)NC(=O)[C@H](Cc1ccccc1)[C@@H](O)CNC(=O)OC(C)(C)C [Example 78, (N-tert.-Butoxycarbonyl)amino-2-R,S-benzyl-3-R,S-hydroxybutyryl-D-histidyl-D-phenylalanine-(2-methylpropyl)amide]	100

The next lines start with the values.

Inhibition at 0.05 mg/ml [%]	SMILES
100	O=C(N[C@H](Cc1cnc[nH]1)C(=O)N[C@H](Cc1ccccc1)C(=O)OCc1ccccc1)C(Cc1ccccc1)C(O)CN1C(=O)c2ccccc2C1=O (stereo partly drawn) [Example 70, 4-(N-Phthalyl)amino-2-R,S-benzyl-3R,S-hydroxybutyryl-D-histidyl-D-phenylalanine benzyl ester]
92	O=C(O)[C@@H](Cc1ccccc1)NC(=O)[C@@H](Cc1c[nH]cn1)NC(=O)[C@H](Cc1ccccc1)[C@@H](O)CN1C(=O)c2ccccc2C1=O [Example 71, 4-(N-Phthalyl)amino-2-R,S-benzyl-3R,S-hydroxybutyryl-D-histidyl-D-phenylalanine]
100	O=C(NC1CCCC1)[C@@H](Cc1ccccc1)NC(=O)[C@@H](Cc1c[nH]cn1)NC(=O)[C@H](Cc1ccccc1)[C@@H](O)CN1C(=O)c2ccccc2C1=O [Example 72, 4-(N-Phthalyl)amino-2-R,S-benzyl-3R,S-hydroxybutyryl-D-histidyl-D-phenylalanine(cyclopentyl)amide]
63	CC(C)CNC(=O)[C@@H](Cc1ccccc1)NC(=O)[C@@H](Cc1cnc[nH]1)NC(=O)C(Cc1ccccc1)C(O)CNC(=O)c1ccccc1C(=O)O (stereo partly drawn) [Example 90, 4-[N-(2-Carboxy)benzoyl]amino-2-R,S-benzyl-3-R,S-hydroxybutyryl-D-histidyl-D-phenylalanine-(2-methyl) propylamide]
88	COC(=O)[C@@H](Cc1ccccc1)NC(=O)[C@@H](Cc1cnc[nH]1)NC(=O)C(Cc1ccccc1)C(O)CN(Cc1ccccc1)C(=O)Cc1cccnc1 (stereo partly drawn) [Example 103, 4-[N-Benzyl-N-(3-pyridyl)acetyl]amino-2-R,S-benzyl-3-R,S-hydroxybutyryl-D-histidyl-D-phenylalanine methyl ester]
